The values that follow come from patent publication US7947695B2, “5-membered annelated heterocyclic pyrimidines as kinase inhibitors” (Janssen Pharmaceutica NV, priority 2005, dated 2011).

Holding throughout (assay type): biochemical
One experiment has as its target AURORA B (Homo sapiens, UniProt Q96GD4). Put plainly: In vitro filtration assay for AURORA B inhibitory activity. The note with it: peptide (C(LRRWSLG)×4), 1 μM unlabeled ATP, 25° C. 40 minutes, read-out: Aurora B see C.3 (pIC50) (converted). The protocol:
Compounds of the present invention were tested in an in vitro filtration assay assessing AURORA B activity by means of its substrate-phosphorylation activity using [^33P]-ATP as phosphor donor. The radioactive phosphorylated substrate is then captured on filtermats and the incorporated [^33P] quantitated using a phosphorage storage screen.
The Aurora-B kinase reaction is performed at 25° C. for 40 minutes in a 96-well microtiterplate. The 25 μl reaction volume contains 60 mM Hepes pH 7.5, 3 mM MgCl2, 3 mM MnCl2, 3 μM Na3VO4, 50 μg/ml PEG20000, 1 μM unlabeled ATP, 1 mM DTT, 0.2 μCi AT^33P, 0.25 μg/well peptide (C(LRRWSLG)×4),100 ng Aurora-B/well and 0.2% compound in 100% DMSO. The reaction is stopped by adding 5 μl of a 3% phosphoric acid solution. 10 μl of the reaction mixture is then spotted onto a Filtermat P30 filter (Wallac) and washed 3 times for 5 min. in 75 mM phosphoric acid and 1 time for 5 min. in methanol prior to drying and quantification on the Typhoon (Amersham) using a phosphorage storage screen.
(§1) For each experiment, controls (containing enzyme (complex) and DMSO without compound), a blank incubation (containing DMSO but no enzyme (complex) or compound) and samples (containing enzyme (complex) and compound dissolved in DMSO) were run in parallel. All compounds tested were dissolved and eventually further diluted in DMSO. […] In each test, the blank value was subtracted from both the control and the sample values. The control sample represented maximal enzyme activity. For each sample, the amount of cpm was expressed as a percentage of the mean cpm value of the controls. When appropriate, IC50-values (concentration of the drug, needed to reduce the enzyme activity to 50% of the control) were computed using linear interpolation between the experimental points just above and below the 50% level. Herein the effects of test compounds are expressed as pIC50 (the negative log value of the IC50-value).

In another experiment the target is CDK4/cyclinD1 (Homo sapiens, UniProt P11802). The experiment in a line: In vitro filtration assay for CDK4 inhibitory activity (pRb phosphorylation, [33P]-ATP). The note with it: GST-pRb substrate, 1 μM unlabeled ATP, 25° C. 45 minutes, read-out: cdk4 filter (pIC50) (converted). The protocol:
Compounds of the present invention were tested in an in vitro filtration assay assessing CDK4 activity by means of its pRb-phosphorylation activity using [^33P]-ATP as phosphor donor. The radioactive phosphorylated pRb is then captured on filtermats and the incorporated [^33P] quantitated using a phosphorage storage screen.
The CDK4 kinase reaction is performed at 25° C. for 45 minutes in a 96-well microtiterplate. The 25 μl reaction volume contains 50 mM Hepes pH 7.5, 10 mM NaF, 10 mM MgCl2, 1 mM Na3VO4, 1 μM unlabeled ATP, 1 mM DTT, 0.5 μCi AT^33P, 0.76 μg/well GST-pRb, 50 ng CDK4/cyclinD1/well and 0.2% compound in 100% DMSO.
(§2) The reaction is stopped by adding 5 μl of a 3% phosphoric acid solution. 10 μl of the reaction mixture is then spotted onto a Filtermat P30 filter (Wallac) and washed 3 times for 5 min. in 75 mM phosphoric acid and 1 time for 5 min. in methanol prior to drying and quantification on the Typhoon (Amersham) using a phosphorage storage screen.
as §1

Experiment [1] concerns the target CDK4/cyclinD1 enzyme complex (Homo sapiens, UniProt P11802). The experiment in a line: In vitro scintillation proximity assay (SPA) for CDK4 inhibitory activity. Conditions: GST-pRb substrate, 33P-ATP, 25° C. 30 minutes, read-out: cdk4 SPA see C.4 (pIC50) (converted). The protocol: Compounds of the present invention were tested in an in vitro assay based on SPA technology.
In principle, the assay relies upon the well established SPA technology for the detection of CDK4 phosphorylated proteins, i.e pRb. This phosphorylation is performed using I0 CDK4/cyclinD1 enzyme complex and ^33P-ATP as phosphor donor.
The CDK4 SPA kinase reaction is performed at 25° C. for 30 minutes in a 96-well microtiter plate. The 100 μl reaction volume contains 40 mM Hepes, 6 mM NaF, 6 mM MgCl2, 0.6 mM Na3VO4, 2 μg/ml Pepstatin, 2 μg/ml Leupeptin, 2 μg/ml Aprotinin, 50 μg/ml TLCK, 150 μg/ml DTT, 0.3 μg/ml benzamide, 0.1 μCi ^33P-ATP, 1.7 μg GST-pRb, 50 ng CDK4/cyclinD1/well and 0.2% compound in 100% DMSO. The reaction is stopped by adding to each well 100 μl of the glutathione coated SPA beads (10 mg/ml in PBS+10 mM EDTA+100 μM ATP+0.05% Triton X 100). The plates are then shaked at 300 rpm for 30 min to allow binding of the GST-tagged substrate to the glutathione coated beads. The beads are allowed to settle at the bottom of the plate for 30 minutes. The microtiterplates are centrifuges at 800 rpm for 10 minutes and the amount of phosphorylated (^33P) substrate is determined by counting (30 sec/well) in a microtiterplate scintillation counter.
as §1

Another experiment has as its target T1, AURORA A (Homo sapiens, UniProt O14965).
T1 sequence (O14965 1-403): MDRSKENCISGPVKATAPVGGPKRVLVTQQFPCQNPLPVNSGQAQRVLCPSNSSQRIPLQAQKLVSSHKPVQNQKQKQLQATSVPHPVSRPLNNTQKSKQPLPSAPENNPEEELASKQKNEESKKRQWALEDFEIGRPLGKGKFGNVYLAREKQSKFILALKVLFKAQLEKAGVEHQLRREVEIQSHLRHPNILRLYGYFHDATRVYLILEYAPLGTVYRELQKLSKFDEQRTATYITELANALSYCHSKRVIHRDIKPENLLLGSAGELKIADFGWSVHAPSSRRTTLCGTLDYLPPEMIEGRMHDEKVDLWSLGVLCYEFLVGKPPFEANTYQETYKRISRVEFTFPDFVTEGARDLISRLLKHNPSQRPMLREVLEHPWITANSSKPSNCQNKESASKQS
The experiment in a line: In vitro filtration assay for AURORA A inhibitory activity. The note with it: Kemptide substrate, 1 μM unlabeled ATP, 25° C. 40 minutes, read-out: Aurora A see C.2 (pIC50) (converted). The protocol:
Compounds of the present invention were tested in an in vitro filtration assay assessing AURORA A activity by means of its substrate-phosphorylation activity using [^33P]-ATP as phosphor donor. The radioactive phosphorylated substrate is then captured on filtermats and the incorporated [^33P] quantitated using a phosphorage storage screen.
The Aurora-A kinase reaction is performed at 25° C. for 40 minutes in a 96-well microtiterplate. The 25 μl reaction volume contains 12 mM MOPS pH 7, 0.4 mM EDTA, 0.002% Brij35, 1% glycerol, 0.02% beta-mercapto-ethanol, 0.2 mg/ml BSA, 1 μM unlabeled ATP, […] [^33P]-ATP, 200 μM Kemptide, 3 ng Aurora A/well and 0.2% compound in 100% DMSO.
as §2, §1

SMILES strings stand for the structures.

Chain of AURORA B (Q96GD4 whole entry): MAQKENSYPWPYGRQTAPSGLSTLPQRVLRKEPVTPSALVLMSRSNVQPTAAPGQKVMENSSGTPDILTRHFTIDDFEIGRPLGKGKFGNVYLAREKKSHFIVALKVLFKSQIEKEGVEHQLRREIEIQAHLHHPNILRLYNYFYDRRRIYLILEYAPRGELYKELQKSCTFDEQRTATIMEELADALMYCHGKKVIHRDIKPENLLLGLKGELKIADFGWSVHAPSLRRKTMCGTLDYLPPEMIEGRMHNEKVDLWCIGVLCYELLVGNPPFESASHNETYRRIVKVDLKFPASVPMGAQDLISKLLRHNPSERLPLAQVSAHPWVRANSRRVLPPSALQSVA
Chain of CDK4/cyclinD1 enzyme complex (P11802 whole entry): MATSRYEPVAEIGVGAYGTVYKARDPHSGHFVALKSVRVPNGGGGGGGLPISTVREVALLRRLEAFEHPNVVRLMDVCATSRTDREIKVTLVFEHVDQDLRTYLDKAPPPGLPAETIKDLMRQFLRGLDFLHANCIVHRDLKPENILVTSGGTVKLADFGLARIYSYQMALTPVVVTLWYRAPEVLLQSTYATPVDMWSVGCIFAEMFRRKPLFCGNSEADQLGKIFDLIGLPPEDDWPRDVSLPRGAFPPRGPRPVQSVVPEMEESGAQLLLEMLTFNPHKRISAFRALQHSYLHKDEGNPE
Chain of CDK4/cyclinD1 enzyme complex (P24385 whole entry partner): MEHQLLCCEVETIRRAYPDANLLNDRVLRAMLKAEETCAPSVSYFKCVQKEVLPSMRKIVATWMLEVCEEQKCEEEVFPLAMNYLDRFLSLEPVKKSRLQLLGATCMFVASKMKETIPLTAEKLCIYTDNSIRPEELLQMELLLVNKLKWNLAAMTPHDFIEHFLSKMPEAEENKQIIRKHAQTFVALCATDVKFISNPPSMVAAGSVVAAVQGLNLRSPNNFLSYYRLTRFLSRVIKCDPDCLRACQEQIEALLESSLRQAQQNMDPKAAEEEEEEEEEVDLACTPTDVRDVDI
Chain of CDK4/cyclinD1 (P11802 whole entry): as the sequence (P11802 whole entry) above
Chain of CDK4/cyclinD1 (P24385 whole entry partner): as the sequence (P24385 whole entry partner) above

`OCCCC1CCN(c2ccc(Nc3ncc4cnn(C5CCCCC5)c4n3)cc2)CC1` [compound 10]: the IC50 at AURORA B was above 10000 nM; on CDK4/cyclinD1, 79.4 nM; in experiment [1], 12.6 nM; on AURORA A, 50.1 nM.
For `CN1CCN(c2ccc(Nc3ncc4cnn(C5CCCC5)c4n3)cc2)CC1` [compound 11], the IC50 at AURORA B was 398 nM; at CDK4/cyclinD1, 31.6 nM; in experiment [1], 6.31 nM; at AURORA A it was 158 nM.
Take `c1cc(N2CCOCC2)ccc1Nc1ncc2cnn(C3CCCCC3)c2n1` [compound 12]: the IC50 at AURORA B is 251 nM; at CDK4/cyclinD1, 39.8 nM; in experiment [1], 20 nM; on AURORA A, 63.1 nM.
Regarding `OCCCC1CCN(c2ccc(Nc3ncc4cnn(C5CCCC5)c4n3)cc2)CC1` [compound 13], the IC50 was above 10000 nM at AURORA B, 63.1 nM on CDK4/cyclinD1, 50.1 nM in experiment [1] and 50.1 nM on AURORA A.
`CN1CCC(NCc2ccc(N(C(=O)OC(C)(C)C)c3ncc4cnn(C5CCOCC5)c4n3)cc2)CC1` [compound 72]: the IC50 on AURORA B, at CDK4/cyclinD1 and on AURORA A was above 10000 nM throughout.
Take `CN1CCC(NCc2ccc(Nc3ncc4cnn(C5CCOCC5)c4n3)cc2)CC1` [compound 73]: the IC50 at AURORA B was above 10000 nM; on CDK4/cyclinD1, 631 nM; at AURORA A, above 10000 nM.
For `OCCN1CCC(NCc2ccc(Nc3ncc4cnn(C5CCCCC5)c4n3)cc2)CC1` [compound 75], the results for the IC50 on AURORA B, at CDK4/cyclinD1 and at AURORA A were 1260 nM, 126 nM and 1580 nM, respectively.
As for `COCCCN1CCC(NCc2ccc(N(C(=O)OC(C)(C)C)c3ncc4cnn(C5CCCCC5)c4n3)cc2)CC1` [compound 76], the IC50 on AURORA B, on CDK4/cyclinD1 and on AURORA A was above 10000 nM each time.
Consider `COCCCN1CCC(NCc2ccc(Nc3ncc4cnn(C5CCCCC5)c4n3)cc2)CC1` [compound 77], for which the IC50 is 2000 nM on AURORA B, 79.4 nM on CDK4/cyclinD1 and above 10000 nM on AURORA A.
Take `O=c1[nH]c2cnc(Nc3ccc(N4CCOCC4)cc3)nc2n1C1CCCCC1` [compound 78]: the IC50 at CDK4/cyclinD1 is 1000 nM; in experiment [1], 631 nM.
With `CN1CCN(Cc2ccc(Nc3ncc4[nH]c(=O)n(C5CCCCC5)c4n3)cc2)CC1` [compound 79], the IC50 on AURORA B is above 10000 nM; on CDK4/cyclinD1, 2000 nM; at AURORA A, above 10000 nM.
In the case of `CC(=O)N1CCN(c2ccc(Nc3ncc4[nH]c(=O)n(C5CCCCC5)c4n3)cc2)CC1` [compound 80], the IC50 on AURORA B is above 10000 nM; on CDK4/cyclinD1, 3980 nM; on AURORA A it was 2510 nM.
Consider `O=c1[nH]c2cnc(Nc3ccc(N4CCOCC4)nc3)nc2n1C1CCCCC1` [compound 81], for which the IC50 is above 10000 nM at AURORA B, 5010 nM at CDK4/cyclinD1 and above 10000 nM at AURORA A.
For `CN(C)CCOC(=O)c1ccc(Nc2ncc3[nH]c(=O)n(C4CCCCC4)c3n2)cc1` [compound 82], the IC50 was above 10000 nM on AURORA B, 2000 nM on CDK4/cyclinD1 and above 10000 nM at AURORA A.
Turning to `CN1CCN(C(=O)c2ccc(Nc3ncc4[nH]c(=O)n(C5CCCCC5)c4n3)cc2)CC1` [compound 83], the IC50 on AURORA B was above 10000 nM; at CDK4/cyclinD1, 2510 nM; on AURORA A, above 10000 nM.
For the molecule `CN1CCN(c2ccc(Nc3ncc4[nH]c(=O)n(C5CCCCC5)c4n3)cc2Cl)CC1` [compound 84], the IC50 is above 10000 nM on AURORA B, 631 nM on CDK4/cyclinD1 and 6310 nM at AURORA A.
Consider `O=c1[nH]c2cnc(Nc3ccc(S(=O)(=O)N4CCOCC4)cc3)nc2n1C1CCCCC1` [compound 85], for which the IC50 at AURORA B was above 10000 nM; at CDK4/cyclinD1, above 10000 nM; at AURORA A, 3160 nM.
Take `O=c1[nH]c2cnc(Nc3ccc(CNC4CCNCC4)cc3)nc2n1C1CCCCC1` [compound 86]: the IC50 at AURORA B was above 10000 nM; on CDK4/cyclinD1, 2510 nM; on AURORA A, 5010 nM.
With `CN1CCC(NCc2ccc(Nc3ncc4[nH]c(=O)n(C5CCCCC5)c4n3)cc2)CC1` [compound 87], the IC50 at AURORA B is above 10000 nM; on CDK4/cyclinD1 it was 3980 nM; at AURORA A, above 10000 nM.
For the molecule `CN1CCN(c2ccc(Nc3ncc4[nH]c(=O)n([C@H]5C[C@@H]6CC[C@H]5C6)c4n3)cc2)CC1` [compound 88], the figures for the IC50 at AURORA B, on CDK4/cyclinD1 and at AURORA A were above 10000 nM, 2000 nM and 1580 nM, respectively.
For `CN1CCN(c2ccc(Nc3ncc4c(n3)N(C3CCCCC3)C(=O)C4)cc2)CC1` [compound 89], in that order: 3160 nM, 316 nM and 1580 nM.
Regarding `O=c1[nH]n(C2CCCC2)c2nc(Nc3ccc(N4CCC(CCCO)CC4)cc3)ncc12` [compound 92], the results for the IC50 (at AURORA B; on CDK4/cyclinD1; in experiment [1]) were above 10000 nM, 6310 nM and 2510 nM, respectively.
Turning to `O=C(NC1CCOCC1)c1ccc(Nc2ncc3cnn(C4CCCCC4)c3n2)cc1` [compound 95], the IC50 is 631 nM at AURORA B, 794 nM at CDK4/cyclinD1 and 126 nM at AURORA A.
For `O=C(NCCN1CCOCC1)c1ccc(Nc2ncc3cnn(C4CCCCC4)c3n2)cc1` [compound 96] the same measures were 1260 nM, 631 nM and 100 nM.
On to `COCCCN1CCC(NC(=O)c2ccc(Nc3ncc4cnn(C5CCCCC5)c4n3)cc2)CC1` [compound 97], for which the IC50 on AURORA B is 501 nM; at CDK4/cyclinD1, 631 nM; on AURORA A, 398 nM.
